Data taken from US20100267637A1, “TREATMENT OF MELANOMA WITH ALPHA THYMOSIN PEPTIDES IN COMBINATION WITH A KINASE INHIBITOR” (SciClone Pharmaceuticals, Inc., priority 2007, published 2010).

Test: Treatment toxicity: body weight and drug-induced animal deaths in B16 melanoma-bearing mice
Assay type: in vivo, C57BL/6 mice
Method: The toxic effects of the dosing regimens were also monitored. […] Meanwhile 9H10 was given in two groups via i.p. on Day 3, 6 and 9. […] Tumor volume and body weight were measured every three days, and tumor weights were measured on Day 16 at the end of the study.
On Day 3, the animals were randomly assigned into nine different weight-matched and tumor-size-matched groups. Dosing was started on Day 3 using the regimen according to Table 2.
From Day 1 to Day 15, mortality and moribundity were checked twice daily, the body weights were recorded once every 3 days, and tumors were measured using a caliper once every 3 days. At the end of the study (Day 16), the animals were euthanized by CO2 asphyxiation, and the tumors were excised and weighed.
Toxicity of all treatment regimens was evaluated with the body weights of the study animals along with the drug-induced animal deaths. The inhibition of body weight was calculated using Excel according to the equation below:
PIBW(%)=100×(BW vehicle−BW drug treated)/BW vehicle
Inter-group comparison was performed in terms of tumor volume, tumor weight and body weight, using a student's t test. P values of less than 0.05 were considered to be statistically significant.

CN(C)/N=N/c1[nH]cnc1C(N)=O [DTIC, Dacarbazine]
Body Weight (g) (Mean ± SD) (Day 0 (tumor implantation, before dosing)): 20.86 ± 1.294 g
Body weights on Day 0 (Day 0, animal F1): 21.50 g
Body weights on Day 0 (Day 0, animal F2): 19.90 g
Body weights on Day 0 (Day 0, animal F3): 19.70 g
Body weights on Day 0 (Day 0, animal F4): 19.30 g
Body weights on Day 0 (Day 0, animal F5): 22.10 g
Body weights on Day 0 (Day 0, animal M1): 22.40 g
Body weights on Day 0 (Day 0, animal M2): 21.80 g
Body weights on Day 0 (Day 0, animal M3): 21.00 g
Body weights on Day 0 (Day 0, animal M4): 18.90 g
Body weights on Day 0 (Day 0, animal M5): 22.00 g
Percent inhibition of body weight vs vehicle (PIBW) (Day 0): −0.1440%
Body Weight (g) (Mean ± SD) (Day 3 (start of dosing)): 21.02 ± 0.993 g
Body weights on Day 3 (Day 3, animal F1): 21.60 g
Body weights on Day 3 (Day 3, animal F2): 19.60 g
Body weights on Day 3 (Day 3, animal F3): 20.50 g
Body weights on Day 3 (Day 3, animal F4): 20.30 g
Body weights on Day 3 (Day 3, animal F5): 21.30 g
Body weights on Day 3 (Day 3, animal M1): 22.20 g
Body weights on Day 3 (Day 3, animal M2): 22.00 g
Body weights on Day 3 (Day 3, animal M3): 21.20 g
Body weights on Day 3 (Day 3, animal M4): 19.50 g
Body weights on Day 3 (Day 3, animal M5): 22.00 g
Percent inhibition of body weight vs vehicle (PIBW) (Day 3): −0.6705%
Body Weight (g) (Mean ± SD) (Day 6): 20.41 ± 0.960 g
Body weights on Day 6 (Day 6, animal F1): 20.40 g
Body weights on Day 6 (Day 6, animal F2): 18.40 g
Body weights on Day 6 (Day 6, animal F3): 19.70 g
Body weights on Day 6 (Day 6, animal F4): 20.10 g
Body weights on Day 6 (Day 6, animal F5): 20.50 g
Body weights on Day 6 (Day 6, animal M1): 20.90 g
Body weights on Day 6 (Day 6, animal M2): 21.80 g
Body weights on Day 6 (Day 6, animal M3): 20.20 g
Body weights on Day 6 (Day 6, animal M4): 20.50 g
Body weights on Day 6 (Day 6, animal M5): 21.60 g
Percent inhibition of body weight vs vehicle (PIBW) (Day 6): −0.0490%
Body Weight (g) (Mean ± SD) (Day 9): 20.99 ± 1.049 g
Body weights on Day 9 (Day 9, animal F1): 21.70 g
Body weights on Day 9 (Day 9, animal F2): 19.50 g
Body weights on Day 9 (Day 9, animal F3): 21.10 g
Body weights on Day 9 (Day 9, animal F4): 19.50 g
Body weights on Day 9 (Day 9, animal F5): 21.70 g
Body weights on Day 9 (Day 9, animal M1): 21.30 g
Body weights on Day 9 (Day 9, animal M2): 22.10 g
Body weights on Day 9 (Day 9, animal M3): 20.60 g
Body weights on Day 9 (Day 9, animal M4): 20.00 g
Body weights on Day 9 (Day 9, animal M5): 22.40 g
Percent inhibition of body weight vs vehicle (PIBW) (Day 9): −2.8417%
Body Weight (g) (Mean ± SD) (Day 12): 22.09 ± 1.079 g
Body weights on Day 12 (Day 12, animal F1): 22.50 g
Body weights on Day 12 (Day 12, animal F2): 20.10 g
Body weights on Day 12 (Day 12, animal F3): 21.40 g
Body weights on Day 12 (Day 12, animal F4): 21.70 g
Body weights on Day 12 (Day 12, animal F5): 22.20 g
Body weights on Day 12 (Day 12, animal M1): 22.80 g
Body weights on Day 12 (Day 12, animal M2): 23.40 g
Body weights on Day 12 (Day 12, animal M3): 22.20 g
Body weights on Day 12 (Day 12, animal M4): 21.00 g
Body weights on Day 12 (Day 12, animal M5): 23.60 g
Percent inhibition of body weight vs vehicle (PIBW) (Day 12): −0.9137%
Body Weight (g) (Mean ± SD) (Day 15): 22.22 ± 1.963 g
Body weights on Day 15 (Day 15, animal F1): 21.30 g
Body weights on Day 15 (Day 15, animal F2): 18.70 g
Body weights on Day 15 (Day 15, animal F3): 20.20 g
Body weights on Day 15 (Day 15, animal F4): 22.20 g
Body weights on Day 15 (Day 15, animal F5): 22.20 g
Body weights on Day 15 (Day 15, animal M1): 24.50 g
Body weights on Day 15 (Day 15, animal M2): 24.20 g
Body weights on Day 15 (Day 15, animal M3): 22.70 g
Body weights on Day 15 (Day 15, animal M4): 21.30 g
Body weights on Day 15 (Day 15, animal M5): 24.90 g
Percent inhibition of body weight vs vehicle (PIBW) (Day 15): −0.3613%
body weight effect in words (loss / difference vs vehicle group) (throughout the course of the study): no statistical differences in body weights
